Columns and labels:
[1] = at 20 C; cited from earlier work
[2] = system: varroa (Varroa destructor); conditions: at elevated levels, honey bee colonies; cited from earlier work
[3] = Biodegradation: mineralization in compost, respirometer; conditions: room temperature (22° C.), compared to starch control
Protocol: The relative degradation rate of samples was determined using a respirometer (Micro-Oxymax System, Columbus Instruments, Columbus, Ohio). The respirometer CO2 sensor was calibrated with a CO2 standard gas (8,000 ppm). […] The analyzer was equipped with a thermoconductivity detector and was operated using helium gas.
Commercial compost was purchased locally and adjusted to 58% moisture (dry weight basis). The glass sample bottles (250 ml) were filled with 20.0 g compost and 0.30 g test sample that was gently mixed with the compost. The sample bottles were initially flushed with CO2-free air and sealed. Respirometry experiments were conducted at room temperature (22° C.) and CO2 concentration was read every 12 hr. Three replications were tested for each treatment and data were expressed in terms of percentage mineralization.

Row | Molecule | vapor pressure [1] [kPa] | Control of parasitic mites [2] | Mineralization rate (biodegradability) [3]
1 | CCCCCC(C)=O [2-heptanone] | 0.48 | controls parasitic mites | –
2 | mannitol dioctanoate [M8] | – | – | mineralized at nearly the same rate as the starch control

Reference: US8512726B1, “Molecular gel-based control release devices for pheromones” (The United States of America, as represented by the …, priority 2010, dated 2013)
